This is an account of results in US20220289685A1, “ANTIMALARIAL HEXAHYDROPYRIMIDINE ANALOGUES” (UCB BIOPHARMA SRL, priority 2019, published 2022).

Counter-ions that a name gives are not always drawn.

The assay relates to Plasmodium falciparum 3D7 strain. The experiment in a line: P. falciparum 3D7 asexual blood stage assay (SYBR green readout). The assay is classed as cell-based. The conditions noted are these: Plasmodium falciparum, 3D7, Erythrocyte, 72 h. As for the experimental part: Asexual Blood Stage Assay
The assay used to measure the effect of test compounds on a bloodstream stage of Plasmodium falciparum: 3D7 strain employs SYBR green as the readout. This is a dye that binds to double stranded deoxyribonucleic acid (DNA) with a resulting increase in fluorescence, allowing detection of P. falciparum DNA in infected erythrocytes, and thereby providing a measure of parasite growth and propagation.
P. falciparum Culture Maintenance
Erythrocytes (A+ blood) were prepared for both parasite culture and assay by washing 4 times with incomplete media (15.9 g RPMI 1640 (25 mM HEPES, L-glutamine), 1 g NaHCO3, 2 g glucose, 400 μL gentacin (500 mg/mL), 2 mL hypoxanthine solution (13.6 g/L in 0.1M NaOH pH 7.3) in 1 litre of media). The cells were centrifuged at 1800 g for 5 minutes, before decanting the supernatant and re-suspending in fresh incomplete media. On the final wash, the cells were re-suspended in complete media (incomplete media with 5 g/L AlbumaxII), and centrifuged at 1800 g for 3 minutes. This cell sediment was treated as 100% haematocrit.
P. falciparum 3D7 was cultured in erythrocytes at 5% haematocrit in complete media at 37° C. (1% O2, 3% CO2, balance N2). Cultures were split on a weekly basis to achieve a 1% parasitaemia in erythrocites at 5% haematocrit in fresh media. Culture media is replaced by fresh media every other day (2 times during the week).
On day 1, test compounds were added to assay plates using Echo dispensing technology ([…] and 20 points titration). 50 nL of each compound dilution was added to 50 μL of culture (5% haematocrit, 0.5% parasitaemia) and incubated for 72 h at 37° C. (1% O2, 3% CO2, balance N2). Final concentrations of test compounds ranged from 50,000 nM to 15 nM, in […].
On day 4, 10 μL SYBR green (Invitrogen S7563 supplied as 10,000× concentrate in DMSO) pre-diluted to 3× concentrate with Lysis buffer (20 mM Tris pH 7.9, 5% EDTA, 0.16% w/v, 1.6% TX100 v/v) was added to the cultures and incubated in the dark, overnight, at room temperature.
On day 5, fluorescent signal was measured using a BioTek plate reader (excitation 485 nm, emission 528 nm). All data were processed using IDBS ActivityBase. Raw data were converted into percent inhibition through linear regression by setting the high inhibition control (mefloquine) as 100% and the no inhibition control (DMSO) as 0%. Quality control criteria for passing plates were as follows: Z′>0.5, S:B>3, 30% CV(no inhibition control)<15. The formula used to calculate Z′ is: […]
All EC50 curve fitting was undertaken using the following bi-phasic two site dose response using XLfit model 300 (IDBS):
where A=100 minus the top of the upper curve 1 and the bottom of lower curve; B=Hill slope; log(C)=IC50 concentration at lower site; log(D)=IC50 concentration at upper site; x=inhibitor concentration; and y=% inhibition.
What is called IC50 is the concentration needed to halve the response being measured. Read a low IC50 as greater potency in that assay. As for `C[C@@H]1C[C@H](N2C(=N)N[C@](C)(c3cccc(NC(=O)c4ccc(F)cc4)c3Cl)CC2=O)CCO1` (relative stereo) [Example 3, N-(2-Chloro-3-{(4S)-2-imino-4-methyl-1-[(2R*,4R*)-2-methyl-tetrahydropyran-4-yl]-6-oxo-hexahydropyrimidin-4-yl]phenyl)-4-fluorobenzamide hydrochloride], the IC50 came to 132 nM. To `C[C@@H]1C[C@H](N2C(=N)N[C@](C)(c3cccc(NC(=O)c4ccc(F)cc4F)c3Cl)CC2=O)CCO1` (relative stereo) [Example 4, N-(2-Chloro-3-{(4S)-2-imino-4-methyl-1-[(2R*,4R*)-2-methyl-tetrahydropyran-4-yl]-6-oxo-hexahydropyrimidin-4-yl]phenyl)-2,4-difluorobenzamide hydrochloride] belongs 23 nM.

The compound `C[C@@H]1C[C@H](N2C(=N)N[C@](C)(c3cccc(NC(=O)c4ccncc4)c3Cl)CC2=O)CCO1` (relative stereo) [Example 5, N-(2-Chloro-3-{(4S)-2-imino-4-methyl-1-[(2R*,4R*)-2-methyl-tetrahydropyran-4-yl]-6-oxo-hexahydropyrimidin-4-yl]phenyl)-pyridine-4-carboxamide hydrochloride] yielded an IC50 of 285 nM. To `C[C@@H]1C[C@H](N2C(=N)N[C@](C)(c3cccc(NC(=O)c4ccccn4)c3Cl)CC2=O)CCO1` (relative stereo) [Example 6, N-(2-Chloro-3-{(4S)-2-imino-4-methyl-1-[(2R*,4R*)-2-methyl-tetrahydropyran-4-yl]-6-oxo-hexahydropyrimidin-4-yl}phenyl)-pyridine-2-carboxamide hydrochloride] belongs 33 nM.

`C[C@@H]1C[C@H](N2C(=N)N[C@](C)(c3cccc(NC(=O)c4cccnc4)c3Cl)CC2=O)CCO1` (relative stereo) [Example 7, N-(2-Chloro-3-{(4S)-2-imino-4-methyl-1-[(2R*,4R*)-2-methyl-tetrahydropyran-4-yl]-6-oxo-hexahydropyrimidin-4-yl}phenyl)-pyridine-3-carboxamide hydrochloride] had an IC50 of 29 nM.

For the compound `C[C@@H]1C[C@H](N2C(=N)N[C@](C)(c3cccc(NC(=O)c4ccn(C)n4)c3Cl)CC2=O)CCO1` (relative stereo) [Example 8, N-(2-Chloro-3-{(4S)-2-imino-4-methyl-1-[(2R*,4R*)-2-methyl-tetrahydropyran-4-yl]-6-oxo-hexahydropyrimidin-4-yl}phenyl)-1-methylpyrazole-3-carboxamide hydrochloride], inhibition was half-maximal at 260 nM (IC50).

Regarding `C[C@@H]1C[C@H](N2C(=N)N[C@](C)(c3cccc(NC(=O)c4ccc(Cl)cc4)c3Cl)CC2=O)CCO1` (relative stereo) [Example 9, 4-Chloro-N-(2-chloro-3-{(4S)-2-imino-4-methyl-1-[(2R*,4R*)-2-methyltetrahydropyran-4-yl]-6-oxo-hexahydropyrimidin-4-yl}phenyl)-benzamide hydrochloride], the IC50 came to 52 nM.

`C[C@@H]1C[C@H](N2C(=N)N[C@](C)(c3cccc(NC(=O)c4ccc(C#N)cc4)c3Cl)CC2=O)CCO1` (relative stereo) [Example 10, N-(2-Chloro-3-{(4S)-2-imino-4-methyl-1-[(2R*,4R*)-2-methyl-tetrahydropyran-4-yl]-6-oxo-hexahydropyrimidin-4-yl]phenyl)-4-cyanobenzamide hydrochloride] came in with a half-inhibitory concentration (IC50) of 290 nM. The value for `C[C@@H]1C[C@H](N2C(=N)N[C@](C)(c3cccc(NC(=O)c4cccc(Cl)c4)c3Cl)CC2=O)CCO1` (relative stereo) [Example 11, 3-Chloro-N-(2-chloro-3-{(4S)-2-imino-4-methyl-1-[(2R*,4R*)-2-methyltetrahydropyran-4-yl]-6-oxo-hexahydropyrimidin-4-yl]phenyl)-benzamide hydrochloride] was 9 nM; that for `C[C@@H]1C[C@H](N2C(=N)N[C@](C)(c3cccc(NC(=O)c4ccccc4Cl)c3Cl)CC2=O)CCO1` (relative stereo) [Example 12, 2-Chloro-N-(2-chloro-3-{(4S)-2-imino-4-methyl-1-[(2R*,4R*)-2-methyltetrahydropyran-4-yl]-6-oxo-hexahydropyrimidin-4-yl}phenyl)-benzamide hydrochloride] was 23 nM; that for `C[C@@H]1C[C@H](N2C(=N)N[C@](C)(c3cccc(NC(=O)c4ccc(F)cn4)c3Cl)CC2=O)CCO1` (relative stereo) [Example 13, N-(2-Chloro-3-{(4S)-2-imino-4-methyl-1-[(2R*,4R*)-2-methyl-tetrahydropyran-4-yl]-6-oxo-hexahydropyrimidin-4-yl]phenyl)-5-fluoropyridine-2-carboxamide hydrochloride] was 11 nM. The value for `C[C@@H]1C[C@H](N2C(=N)N[C@](C)(c3cccc(NC(=O)c4cnccn4)c3Cl)CC2=O)CCO1` (relative stereo) [Example 14, N-(2-Chloro-3-{(4S)-2-imino-4-methyl-1-[(2R*,4R*)-2-methyl-tetrahydropyran-4-yl]-6-oxo-hexahydropyrimidin-4-yl}phenyl)-pyrazine-2-carboxamide hydrochloride] was 14 nM; that for `C[C@@H]1C[C@H](N2C(=N)N[C@](C)(c3cccc(NC(=O)c4ncccn4)c3Cl)CC2=O)CCO1` (relative stereo) [Example 15, N-(2-Chloro-3-{(4S)-2-imino-4-methyl-1-[(2R*,4R*)-2-methyl-tetrahydropyran-4-yl]-6-oxo-hexahydropyrimidin-4-yl}phenyl)-pyrimidine-2-carboxamide hydrochloride] was 37 nM; that for `C[C@@H]1C[C@H](N2C(=N)N[C@](C)(c3cccc(NC(=O)c4ccncn4)c3Cl)CC2=O)CCO1` (relative stereo) [Example 16, N-(2-Chloro-3-{(4S)-2-imino-4-methyl-1-[(2R*,4R*)-2-methyl-tetrahydropyran-4-yl]-6-oxo-hexahydropyrimidin-4-yl}phenyl)-pyrimidine-4-carboxamide hydrochloride] was 23 nM. The value for `Cc1nonc1C(=O)Nc1cccc([C@]2(C)CC(=O)N([C@@H]3CCO[C@H](C)C3)C(=N)N2)c1Cl` (relative stereo) [Example 17, N-(2-Chloro-3-{(4S)-2-imino-4-methyl-1-[(2R*,4R*)-2-methyl-tetrahydropyran-4-yl]-6-oxo-hexahydropyrimidin-4-yl}phenyl)-4-methyl-1,2,5-oxadiazole-3-carboxamide hydrochloride] was 12 nM; that for `C[C@@H]1C[C@H](N2C(=N)N[C@](C)(c3cccc(NC(=O)c4ccc(C(F)(F)F)cn4)c3Cl)CC2=O)CCO1` (relative stereo) [Example 18, N-(2-Chloro-3-{(4S)-2-imino-4-methyl-1-[(2R*,4R*)-2-methyl-tetrahydropyran-4-yl]-6-oxo-hexahydropyrimidin-4-yl}phenyl)-5-(trifluoromethyl)pyridine-2-carboxamide hydrochloride] was 46 nM; that for `C[C@@H]1C[C@H](N2C(=N)N[C@](C)(c3cccc(NC(=O)c4cccnn4)c3Cl)CC2=O)CCO1` (relative stereo) [Example 19, N-(2-Chloro-3-{(4S)-2-imino-4-methyl-1-[(2R*,4R*)-2-methyl-tetrahydropyran-4-yl]-6-oxo-hexahydropyrimidin-4-yl]phenyl)-pyridazine-3-carboxamide hydrochloride] was 31 nM.

Turning to `C[C@@H]1C[C@H](N2C(=N)N[C@](C)(c3cccc(NC(=O)c4cccc(C#N)c4)c3Cl)CC2=O)CCO1` (relative stereo) [Example 20, N-(2-Chloro-3-{(4S)-2-imino-4-methyl-1-[(2R*,4R*)-2-methyl-tetrahydropyran-4-yl]-6-oxo-hexahydropyrimidin-4-yl}phenyl)-3-cyanobenzamide hydrochloride], half-maximal inhibition (IC50) was put at 8 nM. The value for `C[C@@H]1C[C@H](N2C(=N)N[C@](C)(c3cccc(NC(=O)c4ccc(C(F)(F)F)nc4)c3Cl)CC2=O)CCO1` (relative stereo) [Example 21, N-(2-Chloro-3-{(4S)-2-imino-4-methyl-1-[(2R*,4R*)-2-methyl-tetrahydropyran-4-yl]-6-oxo-hexahydropyrimidin-4-yl}phenyl)-6-(trifluoromethyl)pyridine-3-carboxamide hydrochloride] was 231 nM.
